Test results: patent US20240269138A1, “MMP13 AS A THERAPEUTIC TARGET FOR ALLERGIC INFLAMMATORY DISEASES” (The General Hospital Corporation, priority 2021, published 2024)

How the values were obtained:
[1] = target: MMP13 (Homo sapiens, UniProt P45452); conditions: fill the S1′ pocket of MMP13 but cannot fit those of other MMPs; cited from earlier work
[2] = tested on: HDM-induced allergic airway inflammation; assay: HDM-induced allergic airway inflammation (mouse model of asthma), intraperitoneal inhibitor; type: in vivo, C57BL/6 mice; conditions: for total BAL leukocyte numbers / histologically detectable changes in the lung tissue sections: 50 mg/kg intraperitoneally on days 19 and 20; for total BAL leukocyte numbers: BAL on day 21, Diff-Quik; for histologically detectable changes in the lung tissue sections: lungs on day 21, H&E and PAS; for effectiveness compared with dexamethasone: inhibitor 50 mg/kg vs dexamethasone 1 mg/kg, intraperitoneally, days 19 and 20; for inflammation in a mouse model of asthma (overall): systemic (intraperitoneal) administration
Description: C57BL/6 mice were subjected to intranasal instillation of control PBS or HDM as in FIGS. 5A-5D. Vehicle (DMSO), dexamethasone (1 mg/kg), and the MMP13 inhibitors CL82198 (MMP13i Inh1; 50 mg/kg) and DB04760 (CAS 544678-85-5; MMP13i Inh2; 50 mg/kg) were administered intraperitoneally (n=3, 3, 4, and 2 per group, respectively) on days 19 and 20. BAL and lungs of PBS- and HDM-challenged mice were prepared for analysis as in FIGS. 5A-5D. (FIG. 6A and FIG. 6B) BAL cells were analyzed by Diff-Quik staining (FIG. 6A). The numbers of total BAL cells and the indicated types of BAL cells were determined from Diff-Quik-stained cell images and are shown as means±SEM (FIG. 6B). *, P<0.05 (two-tailed unpaired Student's t test). (FIG. 6C and FIG. 6D) Lung sections were analyzed by H&E staining (FIG. 6C) and PAS staining (FIG. 6D). Mice were subjected to intranasal instillation of HDM (D. farinae) extract (XPB81D3A25; Stallergenes Greer) in phosphate-buffered saline (PBS) on days 0, 2, 5, 7, 9, 12, 14, 16 and 19. The amounts of HDM extract administered range between 1 μg and 10 μg per animal; the administered amount for each batch was determined by seeking a condition for BAL eosinophils of 2-5×10^5 cells. PBS was instilled as a control. Dexamethasone and MMP13 inhibitors were injected intraperitoneally (1 mg/kg and 50 mg/kg, respectively) on days 19 and 20. BAL and lungs of PBS- and HDM-challenged mice were prepared on day 21 for analysis. Mouse skin and lung tissues were fixed with formalin and embedded in paraffin. Tissue sections were analyzed by hematoxylin and eosin (H&E) and Periodic acid-Schiff (PAS) staining or by immunofluorescence analysis using primary antibodies in conjunction with Alexa Fluor 594- or fluorescein isothiocyanate-conjugated secondary antibodies (Thermo Fisher Scientific) and Hoechst 33342 (Sigma). Primary antibodies specific to the following antigens were used in immunofluorescence analysis after 1:100 to 1:200 dilution: CD3 (SP7; Abcam), MBP (2000-124; Mayo Clinic), and MMP13 (ab39012; Abcam). Cytospins of BAL cells were analyzed by Diff-Quik staining. Data values are expressed as means±SEM. P values were obtained with the unpaired two-tailed Student t test with Welch's correction.

[3] = tested on: OVA-induced allergic dermatitis; assay: OVA-induced allergic dermatitis (mouse model of atopic dermatitis), topical inhibitor; type: in vivo, C57BL/6 mice; conditions: for inflammation in a mouse model of atopic dermatitis (overall): topical administration; for OVA-induced dermal thickening (edema formation) / OVA-induced epidermal thickening / OVA-induced T cell infiltration (CD3+ T cell density) / OVA-induced eosinophil infiltration (MBP+ eosinophil density): topical, 125 μl of 50 mM solution per cm^2 concurrently with OVA challenge, skin on day 21; for OVA-induced dermal thickening (edema formation) / OVA-induced epidermal thickening: H&E; for OVA-induced T cell infiltration (CD3+ T cell density) / OVA-induced eosinophil infiltration (MBP+ eosinophil density): immunostaining
Description: C57BL/6 mice were sensitized to OVA and challenged with control SAL or OVA as in FIGS. 1A-1G. Vehicle (water), the p38α inhibitor SCIO469 (p38αi), and the MMP13 inhibitor DB04760 (CAS 544678-85-5; MMP13i) were administered topically to the challenged skin site (125 μl of 50 mM solution per cm^2; n=10 per group) concurrently with SAL or OVA. SAL- and OVA-challenged skin was prepared for analysis as in FIGS. 1A-1G. (FIGS. 4A-4C) Skin sections were analyzed by H&E staining (FIG. 4A). Epidermal and dermal thickness (FIG. 4B and FIG. 4C, respectively) was determined from H&E-stained skin images and are shown as means±SEM. *, P<0.05; **, P<0.01 (two-tailed unpaired Student's t test). (FIGS. 4D-4G) Skin sections were analyzed by immunostaining/counterstaining for the indicated molecules (FIG. 4D and FIG. 4F). Solid and dotted line, epidermal margins and the epidermal-dermal boundary, respectively. CD3^+ T cell and MBP^+ eosinophil density (FIG. 4E and FIG. 4G, respectively) was determined on the basis of fluorescence signal-bearing cell numbers per image field and is shown as means SEM. **, P<0.01; ***, P<0.001 (two-tailed unpaired Student's t test). For allergen sensitization, OVA (Sigma) and alum adjuvant (Imject; Thermo Fisher Scientific) were combined in saline (0.9% sodium chloride; SAL) to constitute an inoculum (1 mg/ml and 100 mg/ml, respectively) and injected intraperitoneally into mice (200 μl per animal) on day 0 and 7. To elicit dermatitis in OVA-sensitized mice, shaved dorsal skin was subjected to 15 strokes of tape stripping (Tegaderm; 3M) and then challenged with OVA on days 14, 16 and 19. For this epicutaneous challenge, 100 μl of OVA (1 mg/ml in SAL) was applied to cotton gauze (1 cm×1 cm) placed on tape-stripped skin; 100 μl of SAL was applied as a control. For topical administration of p38α and MMP13 inhibitors, 125 μl of inhibitor solution (50 mM) was applied to skin sites concurrently with SAL or OVA. Challenged skin was sampled on day 21 for analysis. Mouse skin and lung tissues were fixed with formalin and embedded in paraffin. Tissue sections were analyzed by hematoxylin and eosin (H&E) and Periodic acid-Schiff (PAS) staining or by immunofluorescence analysis using primary antibodies in conjunction with Alexa Fluor 594- or fluorescein isothiocyanate-conjugated secondary antibodies (Thermo Fisher Scientific) and Hoechst 33342 (Sigma). Primary antibodies specific to the following antigens were used in immunofluorescence analysis after 1:100 to 1:200 dilution: CD3 (SP7; Abcam), MBP (2000-124; Mayo Clinic), and MMP13 (ab39012; Abcam). Cytospins of BAL cells were analyzed by Diff-Quik staining. Data values are expressed as means±SEM. P values were obtained with the unpaired two-tailed Student t test with Welch's correction.

SMILES	selectivity for MMP13 over other MMPs [1]	total BAL leukocyte numbers [2]	histologically detectable changes in the lung tissue sections [2]	effectiveness compared with dexamethasone [2]	inflammation in a mouse model of asthma (overall) [2]	inflammation in a mouse model of atopic dermatitis (overall) [3]	OVA-induced dermal thickening (edema formation) [3]	OVA-induced epidermal thickening [3]	OVA-induced T cell infiltration (CD3+ T cell density) [3]	OVA-induced eosinophil infiltration (MBP+ eosinophil density) [3]
O=C(NCCCCN1CCOCC1)c1cc2ccccc2o1 [CL82198]	almost exclusively selective for MMP13	substantially reduced	prevented	superior to that of dexamethasone	suppresses inflammation	–	–	–	–	–
Cc1cc(CNC(=O)c2cc(C(=O)NCc3ccc(F)c(C)c3)ncn2)ccc1F [DB04760]	–	substantially reduced	prevented	superior to that of dexamethasone	suppresses inflammation	suppresses inflammation	trend of decrease	significantly reduced	significantly reduced	trend of decrease
C[C@@H]1CN(Cc2ccc(F)cc2)[C@@H](C)CN1C(=O)c1cc2c(C(=O)C(=O)N(C)C)cn(C)c2cc1Cl [SCIO469]	–	–	–	–	–	suppresses inflammation	significant decrease	significant decrease	significant decrease	significant decrease
